From patent publication US11597708B2, “Inhibitors of heat shock factors and uses thereof” (HSF Pharmaceuticals SA, priority 2016, dated 2023) come the findings set out here.

The test system of test [1] is HeLa cells. The test is described as follows: Trypan Blue staining, live and necrotic cells. The format is cell-based, human. On the procedure:
(§1) FIG. 6. (A) HeLa cell cultures were mock-exposed (−) or exposed to the indicated concentrations of compound 115 for 24 (left panel) or 96 (right panel) hours. Cell viability of total cultures, floating cells and attached cells was assayed using an Alamar Blue assay. (B) HeLa cell cultures were mock-exposed (−) or exposed to the indicated concentrations of compound 115 for 15-96 hours. Trypan Blue dye exclusion was employed to determine numbers of live cells (left panel) and relative levels of necrotic cells (right panel). (C) HeLa cell cultures were mock-exposed (−) or exposed to the indicated concentrations of compound 115 for 6 and 24 h. Shown are relative levels of early apoptotic cells (annexin-positive, 7 aminoactinomycin D-negative). (D) Flow cytometric analysis of DNA of HeLa cell cultures mock-exposed (−) or exposed to the indicated concentrations of compound 115 for 6, 15 and 24 hours. Relative levels of apoptotic cells are indicated.
(§2) Further studies were aimed at finding out whether IHSF-exposed cancer cells were only growth-arrested or were actually killed and, if they were killed, by what mechanism. […] The viability signal (in whole cultures and, more dramatically, when only attached cells were analyzed) decreased as a function of IHSF concentration. […] Stained (necrotic) and unstained (live) cells were counted (FIG. 6B). […]

Test [2] has as its system HeLa cells. The test is described as follows: Annexin V/7 aminoactinomycin D double staining assay. Type of test: cell-based, human. The note with it: 25 μM for up to 24 hours. On the procedure:
as §1, §2

Test [3] concerns the target T1, HSF1 occupancy of the hspa1a promoter (Homo sapiens, UniProt Q00613).
T1 construct: functionally linked to an hsp70b promoter and therefore controlled by endogenous HSF1; endogenous in cells; host or cells: HeLa cells / HeLa-derived cell line Z74
The test is described as follows: Chromatin immunoprecipitation, HSF1 occupancy of hspa1a promoter in HeLa cells. Type of test: cell-based. The note with it: 12.5 μM for two hours, then heat-treated. As to the method: FIG. 3. (A) HeLa cell cultures were mock-treated (−) or exposed for 2 hours to the indicated concentrations of compounds 058 or 115 and then heat-treated (HS) at 43° C. for 30 min. Top panels: HSF1 DNA-binding activities in cell extracts were determined by EMSA. The panels show the major HSF1-HSE DNA probe complexes. Middle panels: HSF1 levels assayed by western blot (WB). GAPDH served as a loading control. Bottom panels: HSF1 homooligomerization. Aliquots of extracts were EGS-treated and then analyzed by anti-HSF1 WB. The positions of pre-stained molecular weight marker proteins (MW, in thousands) are indicated to the right. Asterisks indicate the positions of monomeric and trimeric HSF1, respectively. (B) Relative occupancy of the hspa1a promoter was assessed by chromatin immunoprecipitation assay of HeLa cell cultures mock-treated (−) or treated with compounds 058 or 115 at 12.5 μM concentrations for 2 hours and then heat-treated (HS) at 43° C. for 30 min. Chromatin fragments were immunoprecipitated using HSF1 antibodies or an F4/80 LR (control) antibody, and associated hspa1a promoter DNA was quantified by real-time PCR.
We also investigated whether the compounds were capable of interfering with HSF1 oligomerization. Aliquots of the extracts were subjected to cross-linking with EGS (ethylene glycolbis(succinimidylsuccinate)) and then re-analyzed by anti-HSF1 WB. […]

For test [4], the system named is HeLa cells. The test is described as follows: Flow cytometric analysis of DNA (sub-G0/G1 fraction). The format is cell-based, human. As to conditions: 12.5 or 25 μM for up to 24 h. On the procedure:
as §1, §2

Test [5] concerns KD 13 (HeLa-derived, HSF1 siRNA). The test is described as follows: Alamar Blue assay of HSF1-deficient KD 13 line versus KD control cells. The note with it: 96 hours exposure, different concentrations. Type of test: cell-based, human. As to the method: FIG. 7. (A) Upper panel: HSF1 levels in cultures of KD control and KD13 cells as assayed by WB. Lower panel: number of alive KD control and KD13 cells after 1-4 days of culture as determined by Trypan Blue dye exclusion. […] Cell viability was assayed by Alamar Blue assay.
The most severely HSF1-deficient lines grew slowly. FIG. 7 reports on the properties of one such line, KD 13, which was compared to control lentivirus-transduced cells (KD control). The WB in FIG. 7A (upper panel) confirms that the KD 13 line is essentially devoid of HSF1. The lower panel compares growth of the cell line with that of the control cells (the graph showing numbers of Trypan Blue-excluding (live) cells after 1-4 days of culture). We conclude that the KD 13 line has partially overcome its HSF1 dependency.

T1 sequence (Q00613 whole entry): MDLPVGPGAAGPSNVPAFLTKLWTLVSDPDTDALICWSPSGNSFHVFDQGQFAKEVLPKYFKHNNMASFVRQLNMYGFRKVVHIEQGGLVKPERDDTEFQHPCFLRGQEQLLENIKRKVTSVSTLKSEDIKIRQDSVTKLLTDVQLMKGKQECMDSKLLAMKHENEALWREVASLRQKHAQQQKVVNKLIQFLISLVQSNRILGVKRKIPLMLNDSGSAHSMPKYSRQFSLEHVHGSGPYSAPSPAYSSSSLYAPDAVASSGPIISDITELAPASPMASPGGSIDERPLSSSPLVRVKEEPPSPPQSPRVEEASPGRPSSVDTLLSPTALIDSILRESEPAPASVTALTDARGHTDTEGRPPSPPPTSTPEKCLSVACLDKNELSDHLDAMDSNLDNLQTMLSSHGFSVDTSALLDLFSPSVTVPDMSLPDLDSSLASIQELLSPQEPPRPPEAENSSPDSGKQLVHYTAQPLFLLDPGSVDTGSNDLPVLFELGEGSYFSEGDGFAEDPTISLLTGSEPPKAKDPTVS

As to `CN(C(=O)/C=C/C1=NCCCO1)c1ncc(-c2cccnc2)s1` [IHSF 115, (E)-3-(5,6-Dihydro-4H-[1,3]oxazin-2-yl)-N-methyl-N-(5-pyridin-3-yl-thiazol-2-yl)-acrylamide], the “necrotic HeLa cells (Trypan Blue)” value in test [1] (15-hour exposure to 3.125 μM) is recorded as “increase in necrotic cells was already apparent”. For the same compound, in test [1] (exposure for 15, 24 and 96 hours), the “numbers of live and necrotic HeLa cells (Trypan Blue)” value was “caused numbers of live cells to decrease and numbers of necrotic cells to increase in a concentration- and time-dependent fashion”. Further, in test [2], the “live cells annexin V-stained” value is “no more than 15%”. The “HSF1 occupancy of the hspa1a promoter (ChIP)” value in test [3] is “not reduced substantially”. Also, the “sub-G0/G1 fractions (% of cells included)” value in test [4] was at most 6%. Also, in test [5], the “resistance of KD 13 line versus control lentivirus-transduced cells to killing” value was “more resistant to killing”.
